This note sets out measurements from patent US9249152B2, “Cyano containing azabenzofuran compounds for the treatment of hepatitis C” (BRISTOL-MYERS SQUIBB COMPANY, priority 2014, dated 2016).

Where two headings read alike, the source gives them in different places. Some results are limits rather than exact numbers.

In the assay the test system is genotype 1b (Con-1) HCV replicon. As to the kind of experiment: HCV replicon luciferase assay, genotype 1b (Con-1). The assay is classed as cell-based. Conditions: genotype 1b HCV replicon, Huh-7 cells, Renilla luciferase, 3 days. The method, then:
The cell lines used to evaluate compounds consist of a human hepatocyte derived cell line (Huh-7) that constitutively expresses a genotype 1b (Con-1) HCV replicon or a genotype 1b (Con-1) HCV replicon with an asparagine replacing the cysteine at amino acid 316, or a genotype 2a (JFH-1) replicon, containing a Renilla luciferase reporter gene. These cells were maintained in Dulbecco's modified Eagle medium (DMEM) containing 10% FBS, 100 U/mL penicillin/streptomycin and 1.0 mg/mL G418.
To evaluate compound efficacy, titrated compounds were transferred to sterile 384-well tissue culture treated plates, and the plates were seeded with HCV replicon cells (50 μL at a density of 2.4×10^3 cells/well) in DMEM containing 4% FBS (final DMSO concentration at 0.5%). After 3 days incubation at 37° C., cells were analyzed for Renilla Luciferase activity using the EnduRen substrate (Promega cat #E6485) according to the manufacturer's directions. Briefly, the EnduRen substrate was diluted in DMEM and then added to the plates to a final concentration of 7.5 μM. The plates were incubated for at least 1 h at 37° C. then read on a Viewlux Imager (PerkinElmer) using a luminescence program. The 50% effective concentration (EC50) was calculated using the four-parameter logistic formula noted above.
Background: A replicon is a self-replicating genome or part of one, used to study replication in cells.

The mark [1] stands for this setting: Hepatitis C virus, Huh-7, 72 h, read-out: EC50 1b (class).
Setting [2] is: Hepatitis C virus, Huh-7, 72 h, read-out: EC50 (uM) 1b.

What is called EC50 is the midpoint of the concentration-response curve. Regarding `CNC(=O)c1c(-c2ccc(F)cc2)oc2nc(CCC(F)(F)F)c(-c3ccc(F)c(C(=O)NC(C)(C#N)C4CC4)c3)cc12` (centres unmarked) [Compound 13006], the EC50 is < 0.1 µM under setting [1] and 0.0036 µM under setting [2].
Taken in the same sequence, the figures for `CNC(=O)c1c(-c2ccc(F)cc2)oc2nc(CCC(F)(F)F)c(-c3cc(F)cc(C(=O)NC(C)(C)C#N)c3)cc12` [Compound 14001] were < 0.1 µM and 0.0022 µM.
Turning to `CNC(=O)c1c(-c2ccc(F)cc2)oc2nc(CCC(F)(F)F)c(-c3cc(F)cc(C(=O)NC(C)(C#N)C4CC4)c3)cc12` (centres unmarked) [Compound 14002], the EC50 under setting [1] is < 0.1 µM.
On the same count and under the same terms, as for `CNC(=O)c1c(-c2ccc(F)cc2)oc2nc(CCC(F)(F)F)c(-c3cc(C(=O)NC(C)(C#N)C4CC4)ccc3F)cc12` (centres unmarked) [Compound 15001], the figure is < 0.1 µM.
Regarding `CNC(=O)c1c(-c2ccc(F)cc2)oc2nc(CCC(F)(F)F)c(-c3cc(C(=O)NC(C)(C)C#N)ccc3F)cc12` [Compound 15002], the EC50 under setting [1] is < 0.1 µM and the EC50 under setting [2] was found to be 0.0042 µM.
`CNC(=O)c1c(-c2ccc(F)cc2)oc2nc(CCC(F)(F)F)c(-c3cc(Cl)c(Cl)c(C(=O)NC(C)(C)C#N)c3)cc12` [Compound 16001]: the EC50 under setting [1] was < 0.1 µM.
As to `CNC(=O)c1c(-c2ccc(F)cc2)oc2nc(CCC(F)(F)F)c(-c3cc(F)c(F)c(C(=O)NC(C)(C#N)C4CC4)c3)cc12` (centres unmarked) [Compound 17001], the EC50 was < 0.1 µM under setting [1] and 0.0018 µM under setting [2].
On the same counts, the results for `[2H]C([2H])([2H])Oc1ncc(-c2cc3c(C(=O)NC)c(-c4ccc(F)cc4)oc3nc2CCC(F)(F)F)cc1C(=O)NC(C)(C#N)C1CC1` (centres unmarked) [Compound 18001] are < 0.1 µM and 0.0037 µM.
For `CNC(=O)c1c(-c2ccc(F)cc2)oc2nc(NCC(F)(F)F)c(-c3cccc(C(=O)NC(C)(C)C#N)c3)cc12` [Compound 20001], under setting [1], the concentration for a half-maximal effect (EC50) was < 0.1 µM.
The same measure, in the same setting: as for `CNC(=O)c1c(-c2ccc(F)cc2)oc2nc(NCC(F)(F)F)c(-c3cccc(C(=O)NC(C)C#N)c3)cc12` (centres unmarked) [Compound 20002], the figure is < 0.1 µM.
`CNC(=O)c1c(-c2ccc(F)cc2)oc2nc(NCC(F)(F)F)c(-c3cccc(C(=O)NC(C)C#N)c3)cc12` (centres unmarked) [Compound 20003]: the EC50 (read-out: EC50 1b (class)) is < 0.1 µM.
Regarding `CNC(=O)c1c(-c2ccc(F)cc2)oc2nc(NCC(F)(F)F)c(-c3cccc(C(=O)NC(C)C#N)c3)cc12` (centres unmarked) [Compound 20004], the EC50 (read-out: EC50 1b (class)) was < 0.1 µM.
`CNC(=O)c1c(-c2ccc(F)cc2)oc2nc(NCC(F)(F)F)c(-c3cccc(C(=O)NC(C)(C#N)C4CC4)c3)cc12` (centres unmarked) [Compound 20006]: the EC50 by setting is: under setting [1], < 0.1 µM; under setting [2], 0.0031 µM.
As for `CNC(=O)c1c(-c2ccc(F)cc2)oc2nc(NCC(F)(F)F)c(-c3cccc(C(=O)NC(C)(C#N)C4CC4)c3)cc12` (centres unmarked) [Compound 20007], the EC50 (read-out: EC50 1b (class)) was < 0.1 µM.
Same read-out and setting: as for `CNC(=O)c1c(-c2ccc(F)cc2)oc2nc(NCC(F)(F)F)c(-c3cccc(C(=O)NC(C)(C#N)C4CC4)c3)cc12` (centres unmarked) [Compound 20008], the figure is < 0.1 µM.
On to `CNC(=O)c1c(-c2ccc(F)cc2)oc2nc(NCC(F)(F)F)c(-c3ccc(OC)c(C(=O)NC(C)(C)C#N)c3)cc12` [Compound 21001], for which the EC50 under setting [1] is < 0.1 µM.
As for `CNC(=O)c1c(-c2ccc(F)cc2)oc2nc(NCC(F)(F)F)c(-c3ccc(F)c(C(=O)NC(C)C#N)c3)cc12` (centres unmarked) [Compound 22001], the EC50 was < 0.1 µM under setting [1] and 0.0055 µM under setting [2].
With `CNC(=O)c1c(-c2ccc(F)cc2)oc2nc(NCC(F)(F)F)c(-c3ccc(F)c(C(=O)NC(C)C#N)c3)cc12` (centres unmarked) [Compound 22002], for the setting “read-out: EC50 1b (class)”, the EC50 was < 0.1 µM.
Same read-out and setting: as for `CNC(=O)c1c(-c2ccc(F)cc2)oc2nc(NCC(F)(F)F)c(-c3ccc(F)c(C(=O)NC(C)C#N)c3)cc12` (centres unmarked) [Compound 22003], the figure is < 0.1 µM.
Regarding `CNC(=O)c1c(-c2ccc(F)cc2)oc2nc(NCC(F)(F)F)c(-c3ccc(F)c(C(=O)NC(C)(C#N)C4CC4)c3)cc12` (centres unmarked) [Compound 22004], the EC50 was < 0.1 µM under setting [1] and 0.004 µM under setting [2].
As to `CNC(=O)c1c(-c2ccc(F)cc2)oc2nc(NCC(F)(F)F)c(-c3ccc(F)c(C(=O)NC(C)(C#N)C4CC4)c3)cc12` (centres unmarked) [Compound 22005], the EC50 (read-out: EC50 1b (class)) is < 0.1 µM.
Still for that read-out and setting: next, `CNC(=O)c1c(-c2ccc(F)cc2)oc2nc(NCC(F)(F)F)c(-c3ccc(F)c(C(=O)NC(C)(C#N)C4CC4)c3)cc12` (centres unmarked) [Compound 22006]: < 0.1 µM.
For the molecule `CNC(=O)c1c(-c2ccc(F)cc2)oc2nc(NCC(F)(F)F)c(-c3cc(F)cc(C(=O)NC(C)(C#N)C4CC4)c3)cc12` (centres unmarked) [Compound 23001], the EC50 under setting [1] is < 0.1 µM.
For `CNC(=O)c1c(-c2ccc(F)cc2)oc2nc(NCC(F)(F)F)c(-c3cc(F)cc(C(=O)NC(C)(C)C#N)c3)cc12` [Compound 23002], the EC50 was < 0.1 µM under setting [1] and 0.0072 µM under setting [2].
On the same counts, the results for `CNC(=O)c1c(-c2ccc(F)cc2)oc2nc(NCC(F)(F)F)c(-c3cc(Cl)c(NCC(F)(F)F)c(C(=O)NC(C)(C)C#N)c3)cc12` [Compound 24001] are < 0.1 µM and 0.0539 µM.
On to `CNC(=O)c1c(-c2ccc(F)cc2)oc2nc(NCC(F)(F)C(F)(F)F)c(-c3cccc(C(=O)NC(C)(C)C#N)c3)cc12` [Compound 30001], for which, under setting [1], the EC50 is < 0.1 µM.
Turning to `CNC(=O)c1c(-c2ccc(F)cc2)oc2nc(NCC(F)(F)C(F)(F)F)c(-c3cccc(C(=O)NC(C)(C#N)C(C)C)c3)cc12` (centres unmarked) [Compound 30002], the EC50 is, setting by setting: under setting [1], < 0.1 µM; under setting [2], 0.0394 µM.
As to `CNC(=O)c1c(-c2ccc(F)cc2)oc2nc(NCC(F)(F)C(F)(F)F)c(-c3cccc(C(=O)NC4(C#N)CCCC4)c3)cc12` [Compound 30003], under setting [1], the EC50 is < 0.1 µM.
On the same count and under the same terms, as for `CNC(=O)c1c(-c2ccc(F)cc2)oc2nc(NCC(F)(F)C(F)(F)F)c(-c3ccc(OC)c(C(=O)NC(C)(C#N)C(C)C)c3)cc12` (centres unmarked) [Compound 31001], the figure is < 0.1 µM.
In the case of `CNC(=O)c1c(-c2ccc(F)cc2)oc2nc(NCC(F)(F)C(F)(F)F)c(-c3ccc(OC)c(C(=O)NC(C)(C#N)C4CC4)c3)cc12` (centres unmarked) [Compound 31002], the EC50 by setting is: under setting [1], < 0.1 µM; under setting [2], 0.0061 µM.
With `CNC(=O)c1c(-c2ccc(F)cc2)oc2nc(NCCO)c(-c3cccc(C(=O)NC(C)(C)C#N)c3)cc12` [Compound 40001], the EC50 under setting [1] was < 0.1 µM.
Take `CNC(=O)c1c(-c2ccc(F)cc2)oc2nc(CCC(F)(F)F)c(-c3ccc(F)c(C(=O)NC4(C#N)CC4)c3)cc12` [Compound K1001]: the EC50 is, setting by setting: under setting [1], < 0.1 µM; under setting [2], 0.0061 µM.
In the case of `CNC(=O)c1c(-c2ccc(F)cc2)oc2nc(CCC(F)(F)F)c(-c3ccc(F)c(C(=O)NC4(C#N)CCC4)c3)cc12` [Compound K1002], the EC50 under setting [1] was < 0.1 µM.
The same measure, in the same setting: as for `CNC(=O)c1c(-c2ccc(F)cc2)oc2nc(CCC(F)(F)F)c(-c3ccc(F)c(C(=O)NC(C)(C)C#N)c3)cc12` [Compound K1003], the figure is < 0.1 µM; as for `CNC(=O)c1c(-c2ccc(F)cc2)oc2nc(NCC(F)(F)F)c(-c3ccc(F)c(C(=O)NC(C)(C)C#N)c3)cc12` [Compound K2001], < 0.1 µM.
For `CNC(=O)c1c(-c2ccc(F)cc2)oc2nc(NCC(F)(F)F)c(-c3ccc(F)c(C(=O)NC4(C#N)CC4)c3)cc12` [Compound K2002], the EC50 is, setting by setting: under setting [1], < 0.1 µM; under setting [2], 0.0034 µM.
In the case of `CNC(=O)c1c(-c2ccc(F)cc2)oc2nc(NCC(F)(F)F)c(-c3ccc(F)c(C(=O)NC4(C#N)CCC4)c3)cc12` [Compound K2003], the EC50 under setting [1] was < 0.1 µM.
Consider `CNC(=O)c1c(-c2ccc(F)cc2)oc2nc(NCC(F)(F)F)c(-c3ccc(F)c(C(=O)NC4(C#N)CCCC4)c3)cc12` [Compound K2004], for which the EC50 under setting [1] is < 0.1 µM.
Consider `CNC(=O)c1c(-c2ccc(F)cc2)oc2nc(NCC(F)(F)F)c(-c3ccc(F)c(C(=O)NC(C)(C#N)C(C)C)c3)cc12` (centres unmarked) [Compound K2005], for which the EC50 under setting [1] is < 0.1 µM.
Still for that read-out and setting: as for `CNC(=O)c1c(-c2ccc(F)cc2)oc2nc(NCC(F)(F)F)c(-c3cccc(C(=O)NC4(C#N)CCCC4)c3)cc12` [Compound K4001], the figure is < 0.1 µM; as for `CNC(=O)c1c(-c2ccc(F)cc2)oc2nc(NCC(F)(F)F)c(-c3cccc(C(=O)NC4(C#N)CCC4)c3)cc12` [Compound K4002], < 0.1 µM.
In the case of `CNC(=O)c1c(-c2ccc(F)cc2)oc2nc(NCC(F)(F)F)c(-c3cccc(C(=O)NC4(C#N)CC4)c3)cc12` [Compound K4003], the EC50 by setting is: under setting [1], < 0.1 µM; under setting [2], 0.0043 µM.
Taken in the same sequence, the figures for `CNC(=O)c1c(-c2ccc(F)cc2)oc2nc(NCC(F)(F)F)c(-c3cccc(C(=O)NC(C)(C#N)C(C)C)c3)cc12` (centres unmarked) [Compound K4004] were < 0.1 µM and 0.004 µM.
For `CNC(=O)c1c(-c2ccc(F)cc2)oc2nc(NCC(F)(F)F)c(-c3ccc(OC)c(C(=O)NC4(C#N)CCC4)c3)cc12` [Compound K5001], the EC50 under setting [1] is < 0.1 µM.
On the same count and under the same terms, as for `CNC(=O)c1c(-c2ccc(F)cc2)oc2nc(NCC(F)(F)F)c(-c3ccc(OC)c(C(=O)NC4(C#N)CC4)c3)cc12` [Compound K5002], the figure is < 0.1 µM.
On the same count and under the same terms, next, `CNC(=O)c1c(-c2ccc(F)cc2)oc2nc(NCC(F)(F)F)c(-c3ccc(OC)c(C(=O)NC4(C#N)CCCC4)c3)cc12` [Compound K5003]: < 0.1 µM.
